Read-outs that look alike come from different tables or passages of the source.
Experiments:
Aβ(1-42) = molecular target: T1, Aβ(1-42) (Homo sapiens, UniProt P05067); experiment: Thioflavin T fluorimetric assay of Aβ(1-42) aggregation; assay type: biochemical; settings: 10 μM Aβ(1-42); read-out: IC50, inhibiting Aβ(1-42) aggregation (thioflavin-T fluorimetric assay)
T1 construct: dissolving Aβ(1-42) HCl salt in hexafluoroisopropanol (HFIP)
Description: Aβ(1-42) was prepared for amyloid aggregation and toxicity assays by dissolving Aβ(1-42) HCl salt in hexafluoroisopropanol (HFIP), with brief sonication and vortexing. This solution of the Aβ(1-42) peptide in HIT was stored at 4° C.@2 mM. When required, an aliquot of this stock solution was freeze-dried and dissolved in DMSO to 200 times the required final assay concentration (e.g. 2 mM for a final assay concentration of 10 μM). A 20 mM stock solution of each test compound was prepared in DMSO, and aliquots of these solutions were used to prepare further stock solutions of each test compound in DMSO, ranging in concentration from 3 μM up to 10 mM. These stock solutions were prepared for use as and when required and stored at −20° C. (maximum of 3 freeze-thaw cycles). The 20 mM parent stock solutions were stored frozen at −20° C. The daughter plate is sealed with silver seal and incubated at 37° C. for 24 and 48 hours for the Thioflavin T assay (LeVine and Scholten 1999). The activity of compounds in inhibiting 10 μM Aβ(1-42) aggregation was assessed by using a thioflavin-T fluorimetric assay. At each timepoint, a 50 or 100 μl aliquot is taken from each well of the daughter plate and dispensed into a black 96 well plate. Equal volume (50 or 100 μl) Thioflavin T [40 μM] (in Glycine buffer [50 mM] —NaOH pH 8.5) is added to each well. The plate was shaken and fluorescence was recorded using the top reader setting (10×1 msec), using excitation and emission filters of 440 (±15) and 485 (±10) nm, respectively. Fluorescence readings from equivalent experiments were averaged and % amyloid formation was determined as follows: [formula] Activity of compounds in inhibiting 10 μM Aβ(1-42) aggregation using thioflavin-T fluorimetric assay

SH SY5Y cells = experiment: Cell viability assay for amyloid toxicity using MTT reduction; assay type: cell-based; settings: 10 μM Aβ(1-42), 24 h incubation, read-out: IC50, protecting SH SY5Y cells from a toxic insult of Aβ(1-42) (MTT reduction as measure of cell viability)
Description: Aβ(1-42) was prepared for amyloid aggregation and toxicity assays by dissolving Aβ(1-42) HCl salt in hexafluoroisopropanol (HFIP), with brief sonication and vortexing. This solution of the Aβ(1-42) peptide in HIT was stored at 4° C.@2 mM. When required, an aliquot of this stock solution was freeze-dried and dissolved in DMSO to 200 times the required final assay concentration (e.g. 2 mM for a final assay concentration of 10 μM).
A 20 mM stock solution of each test compound was prepared in DMSO, and aliquots of these solutions were used to prepare further stock solutions of each test compound in DMSO, ranging in concentration from 3 μM up to 10 mM. These stock solutions were prepared for use as and when required and stored at −20° C. (maximum of 3 freeze-thaw cycles). The 20 mM parent stock solutions were stored frozen at −20° C.
The activity of compounds in protecting SH SY5Y cells from a toxic insult of 10 μM Aβ(1-42) was assessed by using inhibition of MTT reduction as a measure of cell viability. An aliquot (3 μl) of test compound [various concentrations] in DMSO is added to 294 μl of Opti-Mem (containing 2% FBS, 1% Pen/Strep, 1% L-Gln) {daughter plate}. The well is mixed thoroughly. Then an aliquot (3 μl) of Aβ(1-42) [2 mM] is added to the daughter plate wells and again mixed thoroughly. 50 μl is then aspirated and dispensed into wells containing 50 μl media+SH SY5Ycells (cells are also plated in Opti-Mein, at ˜30,000 cells/well/50 μl). Final concentrations of compound on cells range from [50 μM] to [˜15 nM] with a final concentration of Aβ(1-42) of [10 μM].
Cell plates are incubated for 24 h and then the MTT assay (Shearman, 1999). is performed. […] The plate was shaken and the absorbance was recorded at both 570 nm and 650 nm. ΔA values were calculated by subtracting absorbance at 650 nm from absorbance at 570 nm, to reduce non-specific background absorbance. ΔA values from equivalent experiments were averaged and % cell viability was determined as follows: […]

T1 sequence (P05067 672-713): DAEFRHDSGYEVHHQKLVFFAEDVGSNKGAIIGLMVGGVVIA

CN(c1ccccc1)c1cnc(Nc2cccc(O)c2)nc1 [Example 11, 2-(3-Hydroxyphenylamino)-5-[phenyl(methyl)amino]pyrimidine]
IC50 (Aβ(1-42)): 22 µM | IC50 (SH SY5Y cells; Homo sapiens, SH-SY5Y): 30 µM

Oc1cccc(Nc2cnc(Nc3cccc(O)c3)nc2)c1 [Example 2, 2,5-Bis-(3-hydroxyphenylamino)pyrimidine]
IC50 (Aβ(1-42)): 32 µM | IC50 (SH SY5Y cells; Homo sapiens, SH-SY5Y): 14 µM

Oc1cccc(Nc2cnc(Nc3cccc(C(F)(F)F)c3)nc2)c1 [Example 8, 2-(3-Trifluoromethylphenylamino)-5-(3-hydroxyphenylamino)-pyrimidine]
IC50 (Aβ(1-42)): 5 µM

COc1cccc(Nc2cnc(Nc3ccc(Cl)c(Cl)c3)nc2)c1 [Example 10, 2-(3,4-Dichlorophenylamino)-5-(3-methoxyphenylamino)-pyrimidine]
IC50 (Aβ(1-42)): 8.5 µM

Oc1cccc(Nc2ccc(Nc3cccc(O)c3)nn2)c1 [RS-0406, reference compound]
IC50 (SH SY5Y cells): 40 µM

Oc1cccc(Nc2ncc(Nc3cccc(C(F)(F)F)c3)cn2)c1 [Example 4, 2-(3-Hydroxyphenylamino)-5-[3-(trifluoromethyl)phenylamino]-pyrimidine]
IC50 (Aβ(1-42)): 13 µM

— patent US20100063077A1, “PYRIMIDINE DERIVATIVES FOR THE TREATMENT OF AMYLOID-RELATED DISEASES” (SENEXIS LIMITED, priority 2006, published 2010)
